Marks after values point to notes of the source that are not given here.
Test system: male rats
Assay: Plasma metabolite profiling (GC-MS, LC-MS, SPE-LC-MS) in male rats dosed once daily over 28 days (OECD 407)
Format: in vivo, rat
Details: for Cholesterol / Choline plasmalogen No 02 / Lignoceric acid (C24:0) / Sphingomyelin (d18:1, C16:0) / Sphingomyelin (d18:2, C16:0) / erythro-Sphingosine (d18:1) / 3,4-Dihydroxyphenylacetic acid (DOPAC) / Choline plasmalogen No 03 / Coenzyme Q10 / Elaidic acid (C18:trans[9]1) / Glycerol phosphate, lipid fraction / Glycerol, polar fraction / Lysophosphatidylcholine (C17:0) / Lysophosphatidylcholine (C18:0) / Lysophosphatidylcholine (C20:4) / Lysophosphatidylethanolamine (C22:0) / Phosphatidylcholine (C18:0, C20:3) / Phosphatidylcholine No 04 / Sphingomyelin (d18:2,C18:0) / Threonic acid / Tyrosine / beta-Sitosterol / myo-Inositol, lipid fraction / Alanine, ratio versus control / Androstenedione, ratio versus control / Cholesterol, ratio versus control / Glycine, ratio versus control / Heptadecanoic acid (C17:0), ratio versus control / Testosterone, ratio versus control / Threonine, ratio versus control / Uric acid, ratio versus control / alpha-Tocopherol, ratio versus control: high dose; for Alanine, ratio versus control / Androstenedione, ratio versus control / Cholesterol, ratio versus control / Glycine, ratio versus control / Heptadecanoic acid (C17:0), ratio versus control / Testosterone, ratio versus control / Threonine, ratio versus control / Uric acid, ratio versus control / alpha-Tocopherol, ratio versus control / Glucose, ratio versus control / Lysophosphatidylcholine (C20:4), ratio versus control / Threonic acid, ratio versus control: male rats, plasma; for Glucose, ratio versus control / Lysophosphatidylcholine (C20:4), ratio versus control / Threonic acid, ratio versus control: low dose
Protocol: Each dose group in the studies consisted of five rats per sex. Additional groups of each 5 male and female animals served as controls. […] All animals of the animal population were kept under the same constant temperature (20-24±3° C.) and the same constant humidity (30-70%). The animals of the animal population were fed ad libitum. The food to be used was essentially free of chemical or microbial contaminants. Drinking water was also offered ad libitum. Accordingly, the water was free of chemical and microbial contaminants as laid down in the European Drinking Water Directive 98/83/EG. The illumination period was 12 hours light followed by 12 hours darkness (12 hours light, from 6:00 to 18:00, and 12 hours darkness, from 18:00 to 6:00). […] The test substances (compounds) in the Tables 1 to 17 below were dosed and administered as described in the Table 18.
In the morning of day 7, 14, and 28, blood was taken from the retroorbital venous plexus from fasted anaesthetized animals. From each animal, 1 ml of blood was collected with EDTA as anticoagulant. The samples were centrifuged for generation of plasma. All plasma samples were covered with a N2 atmosphere and then stored at −80° C. until analysis.
For mass spectrometry-based metabolite profiling analyses plasma samples were extracted and a polar and a non-polar (lipid) fraction was obtained. For GC-MS analysis, the non-polar fraction was treated with methanol under acidic conditions to yield the fatty acid methyl esters. Both fractions were further derivatised with O-methyl-hydroxyamine hydrochloride and pyridine to convert Oxogroups to O-methyloximes and subsequently with a silylating agent before analysis. In LC-MS analysis, both fractions were reconstituted in appropriate solvent mixtures. HPLC was performed by gradient elution on reversed phase separation columns. Mass spectrometric detection which allows target and high sensitivity MRM (Multiple Reaction Monitoring) profiling in parallel to a full screen analysis was applied as described in WO2003073464.
Steroids and their metabolites were measured by online SPE-LC-MS (Solid phase extraction-LC-MS).
Following comprehensive analytical validation steps, the data for each analyte were normalized against data from pool samples. These samples were run in parallel through the whole process to account for process variability. The significance of treatment group values specific for sex, treatmentduration and metabolite was determined by comparing means of the treated groups to the means of the respective untreated control groups using WELCH-test and quantified with treatment ratios versus control and p-values.
The identification of the most important biomarkers per toxicity pattern was done by a ranking of the analytes in the tables below. Therefore the metabolic changes in reference treatments of a given pattern (shown in the table) were compared with changes of the same metabolite in other unrelated treatments. […] The maximum absolute value of the respective TVALUE was taken to indicate the most important metabolite for the pattern.

C#C[C@]1(O)CC[C@H]2[C@@H]3CCc4cc(O)ccc4[C@H]3CC[C@@]21C [17-alpha-Ethynylestradiol]
Cholesterol (m7, Table 14b): 0.19
Choline plasmalogen No 02 (m7, Table 14b): 0.28
Lignoceric acid (C24:0) (m7, Table 14b): 0.2
Sphingomyelin (d18:1, C16:0) (m7, Table 14b): 0.2
Sphingomyelin (d18:2, C16:0) (m7, Table 14b): 0.19
erythro-Sphingosine (d18:1) (m7, Table 14b): 0.09
3,4-Dihydroxyphenylacetic acid (DOPAC) (m7, Table 12d): 1.01
Choline plasmalogen No 02 (m7, Table 12d): 0.28 *
Choline plasmalogen No 03 (m7, Table 12d): 0.41 *
Coenzyme Q10 (m7, Table 12d): 0.16 *
Elaidic acid (C18:trans[9]1) (m7, Table 12d): 0.54 *
Glycerol phosphate, lipid fraction (m7, Table 12d): 0.22 *
Glycerol, polar fraction (m7, Table 12d): 0.68 *
Lysophosphatidylcholine (C17:0) (m7, Table 12d): 0.38 *
Lysophosphatidylcholine (C18:0) (m7, Table 12d): 0.77 *
Lysophosphatidylcholine (C20:4) (m7, Table 12d): 0.78 *
Lysophosphatidylethanolamine (C22:0) (m7, Table 12d): 0.28 *
Phosphatidylcholine (C18:0, C20:3) (m7, Table 12d): 0.21 *
Phosphatidylcholine No 04 (m7, Table 12d): 0.17 *
Sphingomyelin (d18:1, C16:0) (m7, Table 12d): 0.32 *
Sphingomyelin (d18:2, C16:0) (m7, Table 12d): 0.19 *
Sphingomyelin (d18:2,C18:0) (m7, Table 12d): 0.24 *
Threonic acid (m7, Table 12d): 0.47 *
Tyrosine (m7, Table 12d): 1.09
beta-Sitosterol (m7, Table 12d): 0.3 *
myo-Inositol, lipid fraction (m7, Table 12d): 0.22 *
Cholesterol (m14, Table 14b): 0.24
Choline plasmalogen No 02 (m14, Table 14b): 0.46
Lignoceric acid (C24:0) (m14, Table 14b): 0.21
Sphingomyelin (d18:1, C16:0) (m14, Table 14b): 0.37
Sphingomyelin (d18:2, C16:0) (m14, Table 14b): 0.24
erythro-Sphingosine (d18:1) (m14, Table 14b): 0.13
3,4-Dihydroxyphenylacetic acid (DOPAC) (m14, Table 12d): 0.58 *
Choline plasmalogen No 02 (m14, Table 12d): 0.46 *
Choline plasmalogen No 03 (m14, Table 12d): 0.43 *
Coenzyme Q10 (m14, Table 12d): 0.31 *
Elaidic acid (C18:trans[9]1) (m14, Table 12d): 0.63 *
Glycerol phosphate, lipid fraction (m14, Table 12d): 0.31 *
Glycerol, polar fraction (m14, Table 12d): 0.84
Lysophosphatidylcholine (C17:0) (m14, Table 12d): 0.58 *
Lysophosphatidylcholine (C18:0) (m14, Table 12d): 0.84 *
Lysophosphatidylcholine (C20:4) (m14, Table 12d): 0.83 *
Lysophosphatidylethanolamine (C22:0) (m14, Table 12d): 0.45 *
Phosphatidylcholine (C18:0, C20:3) (m14, Table 12d): 0.47 *
Phosphatidylcholine No 04 (m14, Table 12d): 0.42 *
Sphingomyelin (d18:1, C16:0) (m14, Table 12d): 0.4 *
Sphingomyelin (d18:2, C16:0) (m14, Table 12d): 0.24 *
Sphingomyelin (d18:2,C18:0) (m14, Table 12d): 0.18 *
Threonic acid (m14, Table 12d): 0.52 *
Tyrosine (m14, Table 12d): 0.96
beta-Sitosterol (m14, Table 12d): 0.38 *
myo-Inositol, lipid fraction (m14, Table 12d): 0.29 *
Cholesterol (m28, Table 14b): 0.39
Choline plasmalogen No 02 (m28, Table 14b): 0.55
Lignoceric acid (C24:0) (m28, Table 14b): 0.43
Sphingomyelin (d18:1, C16:0) (m28, Table 14b): 0.44
Sphingomyelin (d18:2, C16:0) (m28, Table 14b): 0.34
erythro-Sphingosine (d18:1) (m28, Table 14b): 0.24
3,4-Dihydroxyphenylacetic acid (DOPAC) (m28, Table 12d): 0.96
Choline plasmalogen No 02 (m28, Table 12d): 0.55 *
Choline plasmalogen No 03 (m28, Table 12d): 0.48 *
Coenzyme Q10 (m28, Table 12d): 0.37 *
Elaidic acid (C18:trans[9]1) (m28, Table 12d): 0.48 *
Glycerol phosphate, lipid fraction (m28, Table 12d): 0.29 *
Glycerol, polar fraction (m28, Table 12d): 0.63 *
Lysophosphatidylcholine (C17:0) (m28, Table 12d): 0.67 *
Lysophosphatidylcholine (C18:0) (m28, Table 12d): 0.89 *
Lysophosphatidylcholine (C20:4) (m28, Table 12d): 0.88 *
Lysophosphatidylethanolamine (C22:0) (m28, Table 12d): 0.54 *
Phosphatidylcholine (C18:0, C20:3) (m28, Table 12d): 0.79 *
Phosphatidylcholine No 04 (m28, Table 12d): 0.64 *
Sphingomyelin (d18:1, C16:0) (m28, Table 12d): 0.65 *
Sphingomyelin (d18:2, C16:0) (m28, Table 12d): 0.34 *
Sphingomyelin (d18:2,C18:0) (m28, Table 12d): 0.41 *
Threonic acid (m28, Table 12d): 0.54 *
Tyrosine (m28, Table 12d): 0.83 *
beta-Sitosterol (m28, Table 12d): 0.7 *
myo-Inositol, lipid fraction (m28, Table 12d): 0.53 *

CCNC(=O)[C@@H]1CCCN1C(=O)[C@H](CCCNC(=N)N)NC(=O)[C@H](CC(C)C)NC(=O)[C@@H](COC(C)(C)C)NC(=O)[C@H](Cc1ccc(O)cc1)NC(=O)[C@H](CO)NC(=O)[C@H](Cc1c[nH]c2ccccc12)NC(=O)[C@H](Cc1cnc[nH]1)NC(=O)[C@@H]1CCC(=O)N1 [Buserelin acetate a.c., Buserelin acetate]
Alanine, ratio versus control (day 7): 0.67 *
Androstenedione, ratio versus control (day 7): 0.17 *
Cholesterol, ratio versus control (day 7): 0.9 *
Glycine, ratio versus control (day 7): 0.83 *
Heptadecanoic acid (C17:0), ratio versus control (day 7): 0.81 *
Testosterone, ratio versus control (day 7): 0.11 *
Threonine, ratio versus control (day 7): 1.01 *
Uric acid, ratio versus control (day 7): 0.59 *
alpha-Tocopherol, ratio versus control (day 7): 0.88 *
Alanine, ratio versus control (day 14): 0.74 *
Androstenedione, ratio versus control (day 14): 0.5 *
Cholesterol, ratio versus control (day 14): 0.84 *
Glycine, ratio versus control (day 14): 0.91^
Heptadecanoic acid (C17:0), ratio versus control (day 14): 0.94 *
Testosterone, ratio versus control (day 14): 0.19 *
Threonine, ratio versus control (day 14): 0.92 *
Uric acid, ratio versus control (day 14): 076 *
alpha-Tocopherol, ratio versus control (day 14): 0.93 *
Alanine, ratio versus control (day 28): 0.78^
Androstenedione, ratio versus control (day 28): 0.35 *
Cholesterol, ratio versus control (day 28): 0.91^
Glycine, ratio versus control (day 28): 0.91 *
Heptadecanoic acid (C17:0), ratio versus control (day 28): 0.91 *
Testosterone, ratio versus control (day 28): 0.08 *
Threonine, ratio versus control (day 28): 1.01^
Uric acid, ratio versus control (day 28): 0.85 *
alpha-Tocopherol, ratio versus control (day 28): 1.03^

OC(c1ccc(Cl)cc1)(c1cncnc1)c1ccccc1Cl (stereo not drawn) [Fenarimol]
Glucose, ratio versus control (day 7): 0.9
Lysophosphatidylcholine (C20:4), ratio versus control (day 7): 0.99
Threonic acid, ratio versus control (day 7): 1.37 *
Glucose, ratio versus control (day 14): 0.9 *
Lysophosphatidylcholine (C20:4), ratio versus control (day 14): 0.96 *
Threonic acid, ratio versus control (day 14): 1.3 *
Glucose, ratio versus control (day 28): 0.91 *
Lysophosphatidylcholine (C20:4), ratio versus control (day 28): 0.97 *
Threonic acid, ratio versus control (day 28): 1.34 *

Source: patent US20150010928A1, “MEANS AND METHODS FOR ASSESSING AN ENDOCRINE DISEASE OR DISORDER” (priority 2012, published 2015)
